The results in this text go back to paper doi:10.1101/2023.07.01.547317v1 (biorxiv, 2023).

This experiment deals with MoIcl1 (Pyricularia oryzae, UniProt P0CT06). Description: biochemical. Type of experiment: binding.
Sequence of MoIcl1 (P0CT06 whole entry, looked up): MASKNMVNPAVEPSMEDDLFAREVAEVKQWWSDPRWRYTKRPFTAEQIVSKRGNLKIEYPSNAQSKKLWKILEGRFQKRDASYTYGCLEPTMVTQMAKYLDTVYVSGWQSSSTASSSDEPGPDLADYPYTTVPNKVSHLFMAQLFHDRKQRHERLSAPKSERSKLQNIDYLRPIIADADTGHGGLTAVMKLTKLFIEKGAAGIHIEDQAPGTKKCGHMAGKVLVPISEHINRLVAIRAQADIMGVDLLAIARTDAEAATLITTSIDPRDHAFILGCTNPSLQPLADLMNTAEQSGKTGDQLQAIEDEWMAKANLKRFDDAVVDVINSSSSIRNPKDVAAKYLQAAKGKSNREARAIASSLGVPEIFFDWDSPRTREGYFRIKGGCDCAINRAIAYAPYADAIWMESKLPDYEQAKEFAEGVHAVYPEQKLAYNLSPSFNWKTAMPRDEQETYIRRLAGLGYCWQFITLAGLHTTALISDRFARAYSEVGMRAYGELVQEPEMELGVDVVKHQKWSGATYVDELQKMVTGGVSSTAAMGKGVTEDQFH

By Kd is commonly meant the constant that tells how readily two partners part at equilibrium. In turn, `COc1ccc2[nH]cc(CCNC(C)=O)c2c1` [melatonin, N-acetyl-5-methoxytryptamine] gave a dissociation constant Kd of 287 µM.
